Key:
BRD4 = target: T1, BRD4 (Homo sapiens, UniProt O60885); assay: DSF; assay type: binding
T1 construct: purchased in-house DSF panel (SGC Frankfurt)

RPS6KA5 = assay: DSF; assay type: binding
Procedure: (§2) Recombinant protein kinase domains with a concentration of 2 μM were mixed with a 10 μM compound solution in DMSO, 20 mM HEPES, pH 7.5, and 500 mM NaCl. SYPRO Orange (5000×, Invitrogen) was added as a fluorescence probe (1 µl per mL). Subsequently, temperature-dependent protein unfolding profiles were measured, using the QuantStudio™ 5 realtime PCR machine (Thermo Fisher, Waltham, MA, USA). […] The temperature was raised with a step rate of 3 °C per minute. Data points were analyzed with the internal software (Thermal Shift SoftwareTM Version 1.4, Thermo Fisher) using the Boltzmann equation to determine the inflection point of the transition curve [56]. Differences in melting temperature are given as ΔTm values in °C. Measurements were performed in duplicates.

BRPF1B = target: T2, BRPF1B (Homo sapiens, UniProt P55201); assay: DSF; assay type: binding
T2 construct: purchased in-house DSF panel (SGC Frankfurt)

STK17A = target: T3, STK17A (Homo sapiens, UniProt Q9UEE5); assay: DSF; assay type: binding
T3 construct: purchased in-house DSF panel (SGC Frankfurt)
T3 sequence (Q9UEE5 61-321): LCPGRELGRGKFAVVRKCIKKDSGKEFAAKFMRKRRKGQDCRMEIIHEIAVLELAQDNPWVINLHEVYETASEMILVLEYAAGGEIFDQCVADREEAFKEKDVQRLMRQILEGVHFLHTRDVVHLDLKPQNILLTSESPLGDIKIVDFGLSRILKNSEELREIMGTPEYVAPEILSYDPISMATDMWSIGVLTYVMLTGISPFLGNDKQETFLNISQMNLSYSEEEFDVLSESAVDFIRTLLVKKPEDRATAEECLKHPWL
Procedure: as §2

DMPK1 = target: T4, DMPK1 (Homo sapiens, UniProt Q09013); assay: DSF; assay type: binding
T4 construct: purchased in-house DSF panel (SGC Frankfurt)
T4 sequence (Q09013 1-629): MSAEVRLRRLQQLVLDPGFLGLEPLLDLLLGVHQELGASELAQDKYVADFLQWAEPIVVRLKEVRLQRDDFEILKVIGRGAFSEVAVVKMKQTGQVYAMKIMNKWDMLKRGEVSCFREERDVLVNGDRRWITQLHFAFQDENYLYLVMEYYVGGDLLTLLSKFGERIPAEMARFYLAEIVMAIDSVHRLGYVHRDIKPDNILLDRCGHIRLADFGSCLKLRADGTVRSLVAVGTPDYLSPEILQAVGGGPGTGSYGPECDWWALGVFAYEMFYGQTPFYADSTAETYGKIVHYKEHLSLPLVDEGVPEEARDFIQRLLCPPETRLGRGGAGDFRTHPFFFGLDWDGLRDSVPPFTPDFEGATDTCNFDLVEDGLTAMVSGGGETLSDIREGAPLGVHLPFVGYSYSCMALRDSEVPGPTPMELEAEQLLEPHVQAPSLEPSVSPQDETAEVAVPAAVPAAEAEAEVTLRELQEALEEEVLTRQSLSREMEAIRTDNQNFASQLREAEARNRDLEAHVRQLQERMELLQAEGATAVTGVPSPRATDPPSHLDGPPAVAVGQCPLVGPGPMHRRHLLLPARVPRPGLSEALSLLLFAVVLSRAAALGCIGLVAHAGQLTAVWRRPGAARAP
Procedure: as §2

MAPK8 = target: T5, MAPK8 (Homo sapiens, UniProt P45983); assay: DSF; assay type: binding
T5 construct: purchased in-house DSF panel (SGC Frankfurt)
Procedure: as §2

EPHB1 = target: T6, EPHB1 (Homo sapiens, UniProt P54762); assay: DSF; assay type: binding
T6 construct: purchased in-house DSF panel (SGC Frankfurt)
Procedure: as §2

NEK7 = target: T7, NEK7 (Homo sapiens, UniProt Q8TDX7); assay: DSF; assay type: binding
T7 construct: purchased in-house DSF panel (SGC Frankfurt)
Procedure: as §2

TLK1 = target: T8, TLK1 (Homo sapiens, UniProt Q9UKI8); assay: DSF; assay type: binding
T8 construct: purchased in-house DSF panel (SGC Frankfurt)
Procedure: as §2

CDK5/CDK5R2 = target: T9, CDK5/CDK5R2 (Homo sapiens, UniProt Q00535); assay: NanoBRET; assay type: cell-based; conditions: read-out: NanoBRET EC50 ± SEM CDK5/CDK5R2
T9 construct: Full-length kinases were obtained as plasmids cloned in frame with a terminal NanoLuc-fusion; CS1810C174 (CDK5R2); host or cells: HEK293T
Outline: (§1)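 HEK293T, transient NanoLuc-kinase fusions (full-length), 20 h expression. Cmpd serial dilution + tracer at KD,app; 2 h, 37 °C, 5% CO2. Filtered luminescence 450 nm donor/610 nm acceptor; EC50 by normalized 3-parameter fit.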

CDK1/Cyclin B1 = target: T10, CDK1/Cyclin B1 (Homo sapiens, UniProt P06493); assay: NanoBRET; assay type: cell-based; conditions: read-out: NanoBRET EC50 ± SEM CDK1/Cyclin B1
T10 construct: Full-length kinases were obtained as plasmids cloned in frame with a terminal NanoLuc-fusion; CS1810C170 (CCNB1); host or cells: HEK293T
Outline: as §1

CDK5/CDK5R1 = target: T11, CDK5/CDK5R1 (Homo sapiens, UniProt Q00535); assay: NanoBRET; assay type: cell-based; conditions: read-out: NanoBRET EC50 ± SEM CDK5/CDK5R1
T11 construct: Full-length kinases were obtained as plasmids cloned in frame with a terminal NanoLuc-fusion; CS1810C173 (CDK5R1); host or cells: HEK293T
Outline: as §1

T8 sequence (Q9UKI8 456-734): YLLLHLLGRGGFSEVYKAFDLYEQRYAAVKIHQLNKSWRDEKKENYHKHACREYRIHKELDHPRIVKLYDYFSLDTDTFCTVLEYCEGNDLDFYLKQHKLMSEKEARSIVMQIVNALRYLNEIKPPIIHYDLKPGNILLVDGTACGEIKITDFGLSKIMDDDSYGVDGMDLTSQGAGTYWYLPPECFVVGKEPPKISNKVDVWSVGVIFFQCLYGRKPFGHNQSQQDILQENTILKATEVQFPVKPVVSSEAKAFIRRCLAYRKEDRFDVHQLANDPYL
T11 sequence (Q00535 whole entry, the tested form may be a part): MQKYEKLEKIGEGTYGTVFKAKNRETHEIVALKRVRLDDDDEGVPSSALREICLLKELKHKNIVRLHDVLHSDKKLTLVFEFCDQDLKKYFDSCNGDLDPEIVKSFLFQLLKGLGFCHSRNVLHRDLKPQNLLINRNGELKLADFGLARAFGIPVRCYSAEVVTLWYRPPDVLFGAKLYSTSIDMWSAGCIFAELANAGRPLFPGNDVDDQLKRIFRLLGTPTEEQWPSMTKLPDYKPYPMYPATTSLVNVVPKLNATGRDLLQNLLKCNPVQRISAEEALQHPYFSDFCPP
T11 sequence (Q15078 whole entry partner, the tested form may be a part): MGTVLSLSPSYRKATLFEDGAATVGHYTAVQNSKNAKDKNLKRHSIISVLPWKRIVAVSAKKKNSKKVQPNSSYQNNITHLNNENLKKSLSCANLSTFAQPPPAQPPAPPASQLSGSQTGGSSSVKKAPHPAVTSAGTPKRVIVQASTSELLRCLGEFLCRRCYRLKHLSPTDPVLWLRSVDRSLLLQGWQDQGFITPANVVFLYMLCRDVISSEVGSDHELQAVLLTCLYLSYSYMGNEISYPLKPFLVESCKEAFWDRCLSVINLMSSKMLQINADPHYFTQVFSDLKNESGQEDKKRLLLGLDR
T9 sequence (Q00535 whole entry, the tested form may be a part): as the sequence (Q00535 whole entry, the tested form may be a part) above
T9 sequence (Q13319 whole entry partner, the tested form may be a part): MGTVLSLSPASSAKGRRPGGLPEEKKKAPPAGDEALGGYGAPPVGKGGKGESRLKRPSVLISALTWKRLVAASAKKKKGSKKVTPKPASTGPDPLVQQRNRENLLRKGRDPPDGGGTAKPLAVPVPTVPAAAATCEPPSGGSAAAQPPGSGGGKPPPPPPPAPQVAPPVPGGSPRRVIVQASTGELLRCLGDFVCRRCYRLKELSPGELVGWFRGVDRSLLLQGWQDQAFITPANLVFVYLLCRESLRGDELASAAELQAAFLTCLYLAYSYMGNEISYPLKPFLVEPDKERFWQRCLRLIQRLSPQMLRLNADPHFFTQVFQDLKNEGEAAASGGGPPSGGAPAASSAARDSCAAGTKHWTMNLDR
T10 sequence (P06493 whole entry, the tested form may be a part): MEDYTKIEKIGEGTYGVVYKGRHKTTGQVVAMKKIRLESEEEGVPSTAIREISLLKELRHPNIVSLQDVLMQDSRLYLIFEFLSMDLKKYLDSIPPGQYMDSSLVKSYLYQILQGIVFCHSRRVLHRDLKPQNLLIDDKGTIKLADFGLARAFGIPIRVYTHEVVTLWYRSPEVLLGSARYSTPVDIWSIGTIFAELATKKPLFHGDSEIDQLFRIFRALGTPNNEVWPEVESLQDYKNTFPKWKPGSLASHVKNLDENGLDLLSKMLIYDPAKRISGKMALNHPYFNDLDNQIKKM
T10 sequence (P14635 whole entry partner, the tested form may be a part): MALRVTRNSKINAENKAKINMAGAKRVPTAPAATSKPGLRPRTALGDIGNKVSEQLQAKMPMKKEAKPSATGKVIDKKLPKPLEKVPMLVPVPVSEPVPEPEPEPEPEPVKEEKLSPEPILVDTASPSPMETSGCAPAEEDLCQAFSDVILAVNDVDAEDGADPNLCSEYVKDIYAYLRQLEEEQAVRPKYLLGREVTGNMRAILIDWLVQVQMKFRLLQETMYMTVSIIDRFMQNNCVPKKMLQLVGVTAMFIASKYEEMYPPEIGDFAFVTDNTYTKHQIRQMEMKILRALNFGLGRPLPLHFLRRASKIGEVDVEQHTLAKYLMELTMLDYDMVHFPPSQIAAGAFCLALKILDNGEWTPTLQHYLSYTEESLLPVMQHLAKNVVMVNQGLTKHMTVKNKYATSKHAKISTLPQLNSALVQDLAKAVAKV
T7 sequence (Q8TDX7 whole entry): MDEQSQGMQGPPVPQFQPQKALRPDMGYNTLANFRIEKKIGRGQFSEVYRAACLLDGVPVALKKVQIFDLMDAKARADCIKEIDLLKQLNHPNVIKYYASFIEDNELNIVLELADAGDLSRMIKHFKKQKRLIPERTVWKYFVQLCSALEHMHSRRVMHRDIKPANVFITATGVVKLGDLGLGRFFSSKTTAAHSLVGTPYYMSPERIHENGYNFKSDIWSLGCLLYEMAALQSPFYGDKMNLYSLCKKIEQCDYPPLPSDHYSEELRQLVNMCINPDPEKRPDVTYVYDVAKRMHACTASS
T2 sequence (P55201 whole entry): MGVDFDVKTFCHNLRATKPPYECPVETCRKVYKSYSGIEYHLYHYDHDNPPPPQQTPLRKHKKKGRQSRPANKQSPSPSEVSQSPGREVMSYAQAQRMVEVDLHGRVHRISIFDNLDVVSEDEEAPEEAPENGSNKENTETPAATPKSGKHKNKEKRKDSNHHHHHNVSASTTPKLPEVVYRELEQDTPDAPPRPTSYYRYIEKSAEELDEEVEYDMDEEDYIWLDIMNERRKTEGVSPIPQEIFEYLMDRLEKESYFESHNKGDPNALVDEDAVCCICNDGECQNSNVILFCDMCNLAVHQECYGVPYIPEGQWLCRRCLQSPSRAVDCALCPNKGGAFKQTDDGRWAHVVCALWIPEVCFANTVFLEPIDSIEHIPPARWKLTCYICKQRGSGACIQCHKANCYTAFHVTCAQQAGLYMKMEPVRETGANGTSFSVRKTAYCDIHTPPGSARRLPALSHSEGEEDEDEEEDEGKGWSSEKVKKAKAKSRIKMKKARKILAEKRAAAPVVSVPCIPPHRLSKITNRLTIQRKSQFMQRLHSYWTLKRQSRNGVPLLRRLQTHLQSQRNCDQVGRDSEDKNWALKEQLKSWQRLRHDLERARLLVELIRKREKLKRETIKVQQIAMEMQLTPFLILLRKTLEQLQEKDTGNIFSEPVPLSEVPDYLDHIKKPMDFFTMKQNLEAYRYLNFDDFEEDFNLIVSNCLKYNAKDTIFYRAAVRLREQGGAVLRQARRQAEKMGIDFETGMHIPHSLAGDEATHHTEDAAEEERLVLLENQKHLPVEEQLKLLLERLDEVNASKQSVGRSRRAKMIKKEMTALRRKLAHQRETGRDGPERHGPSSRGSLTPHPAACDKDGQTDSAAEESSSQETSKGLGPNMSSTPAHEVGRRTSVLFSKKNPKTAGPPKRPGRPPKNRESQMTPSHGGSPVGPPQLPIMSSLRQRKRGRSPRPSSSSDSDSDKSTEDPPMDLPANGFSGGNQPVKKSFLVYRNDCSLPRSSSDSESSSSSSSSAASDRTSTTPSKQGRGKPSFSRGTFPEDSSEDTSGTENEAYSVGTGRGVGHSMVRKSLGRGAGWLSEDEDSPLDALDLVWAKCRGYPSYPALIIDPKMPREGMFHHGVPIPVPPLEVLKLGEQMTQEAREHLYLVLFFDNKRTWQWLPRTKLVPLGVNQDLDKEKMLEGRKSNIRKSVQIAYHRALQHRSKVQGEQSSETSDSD
T6 sequence (P54762 602-896): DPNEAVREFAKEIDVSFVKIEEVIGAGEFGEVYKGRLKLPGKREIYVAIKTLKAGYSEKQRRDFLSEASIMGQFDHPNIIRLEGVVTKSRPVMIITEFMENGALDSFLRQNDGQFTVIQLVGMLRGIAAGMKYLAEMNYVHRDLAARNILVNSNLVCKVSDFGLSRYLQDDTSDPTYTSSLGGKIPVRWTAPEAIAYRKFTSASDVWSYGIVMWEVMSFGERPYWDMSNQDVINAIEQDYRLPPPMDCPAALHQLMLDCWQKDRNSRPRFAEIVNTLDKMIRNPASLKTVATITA
T5 sequence (P45983 1-364): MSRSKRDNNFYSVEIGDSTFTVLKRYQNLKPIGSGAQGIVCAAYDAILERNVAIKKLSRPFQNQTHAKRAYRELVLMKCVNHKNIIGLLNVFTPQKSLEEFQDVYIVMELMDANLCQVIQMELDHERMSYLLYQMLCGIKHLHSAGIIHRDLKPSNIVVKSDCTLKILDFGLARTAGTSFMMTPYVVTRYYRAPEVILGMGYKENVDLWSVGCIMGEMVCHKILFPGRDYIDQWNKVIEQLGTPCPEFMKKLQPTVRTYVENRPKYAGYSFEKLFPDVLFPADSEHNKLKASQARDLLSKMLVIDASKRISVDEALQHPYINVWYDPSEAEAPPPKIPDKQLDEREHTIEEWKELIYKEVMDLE

Row | Structure (SMILES) | ΔTm BRD4 (BRD4) | ΔTm RPS6KA5 (RPS6KA5) | ΔTm BRPF1B (BRPF1B) | ΔTm STK17A (STK17A) | ΔTm DMPK1 (DMPK1) | ΔTm MAPK8 (MAPK8) | ΔTm EPHB1 (EPHB1) | ΔTm NEK7 (NEK7) | ΔTm TLK1 (TLK1) | EC50 (CDK5/CDK5R2) | EC50 (CDK1/Cyclin B1) | EC50 (CDK5/CDK5R1)
1 | CC(C)OC(=O)c1cc(Nc2ccnc(NCc3ccc(NC(=O)OC(C)(C)C)cc3)n2)n[nH]1 [42d, isopropyl 3-((2-((4-((tert-butoxycarbonyl)amino)benzyl)amino)pyrimidin-4-yl)amino)-1H-pyrazole-5-carboxylate] | -2.1 °C | 0.8 °C | -1.4 °C | -0.4 °C | -0.1 °C | -0.8 °C | 0.9 °C | -1.7 °C | -1.2 °C | – | – | –
2 | CC(C)(C)OC(=O)Nc1ccc(CNc2nccc(Nc3cc(C(=O)OC(C)(C)C)[nH]n3)n2)cc1 [43d, tert-butyl 3-((2-((4-((tert-butoxycarbonyl)amino)benzyl)amino)pyrimidin-4-yl)amino)-1H-pyrazole-5-carboxylate] | -1.5 °C | 1.7 °C | -0.9 °C | -0.6 °C | -0.1 °C | -0.1 °C | 1.0 °C | -1.0 °C | -1.4 °C | – | – | –
3 | COC(=O)c1cc(Nc2ccnc(NCCOCCNC(=O)OC(C)(C)C)n2)[nH]n1 [21d, methyl 5-((2-((2-(2-((tert-butoxycarbonyl)amino)ethoxy)ethyl)amino)pyrimidin-4-yl)amino)-1H-pyrazole-3-carboxylate] | 0.7 °C | – | – | 2.2 °C | 0.5 °C | – | – | – | – | – | – | –
4 | N#CCc1ccc(Nc2nccc(Nc3cc(C4CC4)[nH]n3)n2)cc1 [compound 1, reference compound] | 1.3 °C | – | – | 9.6 °C | 3.2 °C | – | – | – | – | 0.0119 ± 0.0028 µM | 0.0631 ± 0.0104 µM | 0.0303 ± 0.0103 µM
5 | COC(=O)c1cc(Nc2ccnc(NCc3ccc(NC(=O)OC(C)(C)C)cc3)n2)[nH]n1 [21i, methyl 5-((2-((4-((tert-butoxycarbonyl)amino)benzyl)amino)pyrimidin-4-yl)amino)-1H-pyrazole-3-carboxylate] | 1.0 °C | – | – | -0.1 °C | 0.1 °C | – | – | – | – | 38.6 ± 5.85 µM | 9.3 ± 5.79 µM | 28.6 ± 4.65 µM

Reference: PMC9736855, “Discovery of 3-Amino-1H-pyrazole-Based Kinase Inhibitors to Illuminate the Understudied PCTAIRE Family” (International Journal of Molecular Sciences, 2022)
